≈ marks a conversion by molar mass, not a printed value.
Key:
[1] = test system: herpes simplex virus (HSV) type 1; settings: cited from earlier work
cytomegalovirus (CMV) = settings: CMV having no thymidine kinase (TK); Clinic and Study, vol. 70, No.8 (1993); cited from earlier work
[2] = test system: herpes simplex virus (HSV) type 2; settings: cited from earlier work
[3] = Assay for cytotoxicity (cell growth, Coulter Counter); assay type: cell-based; settings: human; HEL cells; 3 days incubation; cell growth inhibited by 50%; read-out: Cytotoxicity CC₅₀
Description: (§1) Human embryonic lung fibroblast (HEL cell, ATCC CCL-137)
(§2) Culture: The cell is cultured in a minimum essential medium (MEM, Gibco) supplemented with 10% inactivated bovine fetal serum, 1% L-glutamine, and 0.3% sodium hydrogen carbonate.
HEL cellls of 3 x 10³ cells/well are seeded into a 96 well microtiter plate and allowed to proliferate in a MEM medium containing 10% inactivated bovine fetal serum at 37°C for 24 hours. Subsequently, the medium is changed into a MEM medium containing different concentrations of the tested compound, and then the incubation is continued for another 3 days. When monolayer cells are grown to 70%, number of cells is countered by Coulter Counter. The cytotoxicity is indicated by CC₅₀ (i.e., concentration at which the cell growth is inhibited by 50%.).

TK⁻VZV 07/1 strain = test: Assay for antiviral activity (plaque formation in HEL cells); assay type: cell-based, Varicella-zoster virus (VZV); settings: Human alphaherpesvirus 3, HEL, 120 h, read-out: Antiviral Activity IC₅₀ (µg/mL)
Description: (§3) The nucleoside derivative of the invention is further examined in antivairal activity to varicella-zoster virus (VZV) and cytotoxicity by the following tests.
as §1, §2
(§4) • (a) Thymidine kinase-positive (TK⁺) strain OKA & YS • (b) Thymidine kinase-deficient (TK⁻) strain YS/R & 07/1
(§5) Cells cultured on a 96-well microtiter plate are inoculated with the virus at an input of 20 plaque formation units (PFU). The cultured cells are incubated at 37°C for 2 hours. Subsequently, remaining virus is removed, and the incubated cells are again cultured in a MEM medium to which are added the test compound, 10% inactivated bovine fetal serum, 1% L-glutamine, and 0.3% sodium hydrogen carbonate in duplicate. After five days culture, the microtiter plate is fixed by ethanol, stained by Giemsa staining method, and microscopically observed for measurement of number of plaques formed. The results are indicated by IC₅₀ (i.e., concentration at which the plaque formation by virus is inhibited by 50%.

TK⁺VZV YS strain = test: as above; assay type: cell-based, Varicella-zoster virus (VZV); settings: Human alphaherpesvirus 3, HEL, 120 h, read-out: Antiviral Activity IC₅₀ (µg/mL)
Description: as §3, §1, §2, §4, §5

TK⁺VZV OKA strain = test: as above; assay type: cell-based, Varicella-zoster virus (VZV); settings: Human alphaherpesvirus 3, HEL, 120 h, read-out: Antiviral Activity IC₅₀ (µg/mL)
Description: as §3, §1, §2, §4, §5

TK⁻VZV YS/R strain = test: as above; assay type: cell-based, Varicella-zoster virus (VZV); settings: Human alphaherpesvirus 3, HEL, 120 h, read-out: Antiviral Activity IC₅₀ (µg/mL)
Description: as §3, §1, §2, §4, §5

Structure (SMILES): Nc1nc2c(ncn2COCCO)c(=O)[nH]1 [Acyclovir]
- concentration showing inhibitory effect [1]: less than 0.05 µL/mL
- effectiveness to cytomegalovirus (CMV) (cytomegalovirus (CMV)): not effective
- concentration showing inhibitory effect [2]: less than 0.05 µL/mL

Structure (SMILES): Nc1ncnc2c1ncn2[C@@H]1O[C@H](COC2(c3ccccc3)c3ccccc3Oc3ccccc32)[C@@H](OC2(c3ccccc3)c3ccccc3Oc3ccccc32)[C@H]1OC1CCCCO1 (some centres unmarked) [Example 2, 2'-O-Tetrahydropyranyl-3',5'-O-di(9-phenylxanthenyl)adenosine]
- CC50 at 72 h [3]: > 50 µg/mL
- IC50 (TK⁻VZV 07/1 strain): 0.8 µg/mL (≈ 0.926 µM)
- IC50 (TK⁺VZV YS strain): 1 µg/mL (≈ 1.16 µM)
- IC50 (TK⁺VZV OKA strain): 2 µg/mL (≈ 2.31 µM)
- IC50 (TK⁻VZV YS/R strain): 2 µg/mL (≈ 2.31 µM)
